# Assays:
# Assay in all cases: KINOMEscan (ScanMAX) kinase profiling
# Format in all cases: binding
# panel of 468 kinases [1] = molecular target: T1, panel of 468 kinases (Homo sapiens, UniProt Q9Y4K4); details: MAP4K5; 1 μM; read-out: % control
# T1 construct: purchased KINOMEscan (ScanMAX) service
# panel of 468 kinases [2] = molecular target: T2, panel of 468 kinases (Homo sapiens, UniProt P42338); details: PIK3CB; 1 μM; read-out: % control
# T2 construct: purchased KINOMEscan (ScanMAX) service
# T2 sequence (P42338 whole entry): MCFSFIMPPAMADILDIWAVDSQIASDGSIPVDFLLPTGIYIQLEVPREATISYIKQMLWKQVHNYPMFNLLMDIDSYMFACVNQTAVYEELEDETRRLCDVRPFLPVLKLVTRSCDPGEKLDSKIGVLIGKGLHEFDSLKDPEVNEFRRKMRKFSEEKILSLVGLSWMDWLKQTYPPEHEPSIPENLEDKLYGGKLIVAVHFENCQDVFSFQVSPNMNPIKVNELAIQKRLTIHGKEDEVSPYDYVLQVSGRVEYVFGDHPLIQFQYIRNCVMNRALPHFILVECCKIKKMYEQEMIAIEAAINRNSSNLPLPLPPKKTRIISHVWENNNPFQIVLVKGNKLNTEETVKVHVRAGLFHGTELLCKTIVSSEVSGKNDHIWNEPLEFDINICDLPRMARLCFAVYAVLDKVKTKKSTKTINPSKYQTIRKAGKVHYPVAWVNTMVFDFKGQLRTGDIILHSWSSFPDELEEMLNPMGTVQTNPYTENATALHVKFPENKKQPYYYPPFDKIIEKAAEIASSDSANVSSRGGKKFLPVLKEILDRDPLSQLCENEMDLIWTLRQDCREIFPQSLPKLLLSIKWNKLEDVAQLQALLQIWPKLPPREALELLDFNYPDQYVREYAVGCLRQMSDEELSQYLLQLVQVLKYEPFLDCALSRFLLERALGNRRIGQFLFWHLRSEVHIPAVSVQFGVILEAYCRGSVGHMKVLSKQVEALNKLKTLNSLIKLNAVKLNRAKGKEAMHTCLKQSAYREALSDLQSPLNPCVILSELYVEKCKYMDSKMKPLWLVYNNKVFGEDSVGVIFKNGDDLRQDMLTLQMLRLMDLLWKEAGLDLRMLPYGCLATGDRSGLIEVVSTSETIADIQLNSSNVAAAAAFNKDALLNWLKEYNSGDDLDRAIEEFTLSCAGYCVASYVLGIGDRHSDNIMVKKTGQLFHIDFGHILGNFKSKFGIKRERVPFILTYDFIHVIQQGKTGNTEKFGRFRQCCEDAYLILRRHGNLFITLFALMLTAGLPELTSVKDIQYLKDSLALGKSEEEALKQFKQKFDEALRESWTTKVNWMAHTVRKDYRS
# panel of 468 kinases [3] = molecular target: T3, panel of 468 kinases (Homo sapiens, UniProt Q8WXR4); details: MYO3B; 1 μM; read-out: % control
# T3 construct: purchased KINOMEscan (ScanMAX) service
# T3 sequence (Q8WXR4 1-1341): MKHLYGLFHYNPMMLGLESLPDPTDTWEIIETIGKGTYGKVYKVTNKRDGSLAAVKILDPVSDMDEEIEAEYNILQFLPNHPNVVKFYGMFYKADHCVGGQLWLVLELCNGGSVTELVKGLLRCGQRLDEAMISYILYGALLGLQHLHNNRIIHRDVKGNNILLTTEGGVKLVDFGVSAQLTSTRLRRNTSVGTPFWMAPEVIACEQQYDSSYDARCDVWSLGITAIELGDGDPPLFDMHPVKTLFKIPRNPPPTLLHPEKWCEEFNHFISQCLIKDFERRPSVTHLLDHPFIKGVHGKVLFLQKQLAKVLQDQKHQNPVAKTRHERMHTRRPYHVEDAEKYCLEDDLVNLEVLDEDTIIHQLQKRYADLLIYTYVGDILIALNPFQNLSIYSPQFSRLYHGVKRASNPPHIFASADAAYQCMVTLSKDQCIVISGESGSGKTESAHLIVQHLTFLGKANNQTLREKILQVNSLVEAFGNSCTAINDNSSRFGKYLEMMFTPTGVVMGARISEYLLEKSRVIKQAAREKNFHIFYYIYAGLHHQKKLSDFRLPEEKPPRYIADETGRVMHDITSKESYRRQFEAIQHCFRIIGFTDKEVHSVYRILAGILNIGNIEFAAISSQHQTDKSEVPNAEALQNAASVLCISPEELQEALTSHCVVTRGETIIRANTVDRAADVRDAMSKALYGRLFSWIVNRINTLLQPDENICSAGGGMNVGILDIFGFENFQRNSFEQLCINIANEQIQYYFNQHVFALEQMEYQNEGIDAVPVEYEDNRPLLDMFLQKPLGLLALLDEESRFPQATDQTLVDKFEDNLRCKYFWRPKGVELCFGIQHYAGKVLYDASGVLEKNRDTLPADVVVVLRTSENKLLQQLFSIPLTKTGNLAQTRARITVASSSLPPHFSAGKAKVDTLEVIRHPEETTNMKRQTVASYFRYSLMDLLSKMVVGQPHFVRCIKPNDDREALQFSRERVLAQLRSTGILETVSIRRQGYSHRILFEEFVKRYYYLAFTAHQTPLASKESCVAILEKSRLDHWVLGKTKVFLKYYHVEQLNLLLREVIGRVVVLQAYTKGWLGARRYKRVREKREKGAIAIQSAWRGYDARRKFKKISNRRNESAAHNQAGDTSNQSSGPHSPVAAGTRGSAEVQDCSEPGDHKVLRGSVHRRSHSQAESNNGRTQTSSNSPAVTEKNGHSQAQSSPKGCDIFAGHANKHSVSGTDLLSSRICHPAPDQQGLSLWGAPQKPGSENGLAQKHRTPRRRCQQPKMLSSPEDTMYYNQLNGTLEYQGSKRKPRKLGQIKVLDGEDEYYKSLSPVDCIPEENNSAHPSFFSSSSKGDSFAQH
# panel of 468 kinases [4] = molecular target: T4, panel of 468 kinases (Homo sapiens, UniProt P00533, DEL746-750); details: EGFR(E746-A750del); 1 μM; read-out: % control
# T4 construct: purchased KINOMEscan (ScanMAX) service
# T4 sequence (P00533 with tags, fused parts or gaps DEL746-750): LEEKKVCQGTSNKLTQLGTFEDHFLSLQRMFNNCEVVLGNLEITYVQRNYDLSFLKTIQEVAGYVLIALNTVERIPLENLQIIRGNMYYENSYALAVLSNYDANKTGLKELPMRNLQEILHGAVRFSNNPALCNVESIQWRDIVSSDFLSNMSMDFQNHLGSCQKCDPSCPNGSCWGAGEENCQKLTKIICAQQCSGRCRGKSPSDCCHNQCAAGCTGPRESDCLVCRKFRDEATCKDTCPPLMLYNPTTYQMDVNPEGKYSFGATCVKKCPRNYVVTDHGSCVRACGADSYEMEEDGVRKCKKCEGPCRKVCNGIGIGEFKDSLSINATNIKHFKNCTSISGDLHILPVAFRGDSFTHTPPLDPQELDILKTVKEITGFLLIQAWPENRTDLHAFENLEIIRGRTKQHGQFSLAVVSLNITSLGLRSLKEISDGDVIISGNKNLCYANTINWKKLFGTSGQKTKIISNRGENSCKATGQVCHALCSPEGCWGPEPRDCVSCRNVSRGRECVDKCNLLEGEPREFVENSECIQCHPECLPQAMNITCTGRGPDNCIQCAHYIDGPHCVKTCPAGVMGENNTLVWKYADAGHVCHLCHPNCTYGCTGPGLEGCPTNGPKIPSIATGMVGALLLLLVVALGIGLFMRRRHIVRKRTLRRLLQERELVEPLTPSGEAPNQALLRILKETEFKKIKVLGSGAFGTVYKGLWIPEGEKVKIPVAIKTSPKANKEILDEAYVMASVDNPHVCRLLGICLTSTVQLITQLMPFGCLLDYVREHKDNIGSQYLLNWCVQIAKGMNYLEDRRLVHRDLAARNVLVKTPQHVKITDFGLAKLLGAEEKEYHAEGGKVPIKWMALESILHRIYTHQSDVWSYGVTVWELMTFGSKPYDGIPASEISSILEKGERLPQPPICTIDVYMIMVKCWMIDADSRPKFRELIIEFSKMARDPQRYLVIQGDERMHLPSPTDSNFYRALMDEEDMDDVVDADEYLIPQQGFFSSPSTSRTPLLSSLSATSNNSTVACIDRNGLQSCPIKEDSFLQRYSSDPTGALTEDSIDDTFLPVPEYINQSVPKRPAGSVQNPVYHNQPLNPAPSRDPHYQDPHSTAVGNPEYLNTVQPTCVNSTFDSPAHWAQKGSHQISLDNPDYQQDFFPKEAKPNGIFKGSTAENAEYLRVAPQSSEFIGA
# panel of 468 kinases [5] = molecular target: T5, panel of 468 kinases (Homo sapiens, UniProt Q96RR4); details: CAMKK2; 1 μM; read-out: % control
# T5 construct: purchased KINOMEscan (ScanMAX) service
# T5 sequence (Q96RR4 whole entry): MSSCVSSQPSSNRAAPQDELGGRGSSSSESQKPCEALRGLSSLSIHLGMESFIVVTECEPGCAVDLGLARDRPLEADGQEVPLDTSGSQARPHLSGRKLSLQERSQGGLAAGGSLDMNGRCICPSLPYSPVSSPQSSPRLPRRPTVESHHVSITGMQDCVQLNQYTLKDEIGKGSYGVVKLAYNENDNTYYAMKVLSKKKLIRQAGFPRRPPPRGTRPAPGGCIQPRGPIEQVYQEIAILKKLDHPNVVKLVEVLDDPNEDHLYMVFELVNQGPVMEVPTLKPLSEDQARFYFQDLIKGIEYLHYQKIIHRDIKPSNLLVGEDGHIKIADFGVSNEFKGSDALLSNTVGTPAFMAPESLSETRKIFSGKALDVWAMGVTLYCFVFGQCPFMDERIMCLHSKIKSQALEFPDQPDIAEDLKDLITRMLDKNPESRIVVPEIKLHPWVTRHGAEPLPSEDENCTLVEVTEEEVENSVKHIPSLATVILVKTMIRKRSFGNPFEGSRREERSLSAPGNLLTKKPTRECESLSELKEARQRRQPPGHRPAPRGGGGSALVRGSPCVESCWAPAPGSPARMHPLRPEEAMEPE
# panel of 468 kinases [6] = molecular target: T6, panel of 468 kinases (Homo sapiens, UniProt Q52WX2); details: SBK1; 1 μM; read-out: % control
# T6 construct: purchased KINOMEscan (ScanMAX) service
# T6 sequence (Q52WX2 whole entry): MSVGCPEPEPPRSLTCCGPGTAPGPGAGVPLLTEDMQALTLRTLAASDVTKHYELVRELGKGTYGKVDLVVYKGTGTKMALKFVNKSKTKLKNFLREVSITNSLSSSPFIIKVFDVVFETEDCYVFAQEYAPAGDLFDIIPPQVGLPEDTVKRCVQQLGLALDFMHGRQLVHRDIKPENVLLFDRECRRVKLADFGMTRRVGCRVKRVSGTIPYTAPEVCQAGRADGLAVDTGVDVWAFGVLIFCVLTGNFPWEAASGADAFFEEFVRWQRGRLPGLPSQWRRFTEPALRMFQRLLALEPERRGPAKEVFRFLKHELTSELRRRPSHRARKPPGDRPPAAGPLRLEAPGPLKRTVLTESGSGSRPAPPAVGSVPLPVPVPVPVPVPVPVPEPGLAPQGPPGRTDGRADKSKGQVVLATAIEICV
# panel of 468 kinases [7] = molecular target: T7, panel of 468 kinases (Homo sapiens, UniProt Q13131); details: AMPK-alpha1; 1 μM; read-out: % control
# T7 construct: purchased KINOMEscan (ScanMAX) service
# T7 sequence (Q13131 whole entry): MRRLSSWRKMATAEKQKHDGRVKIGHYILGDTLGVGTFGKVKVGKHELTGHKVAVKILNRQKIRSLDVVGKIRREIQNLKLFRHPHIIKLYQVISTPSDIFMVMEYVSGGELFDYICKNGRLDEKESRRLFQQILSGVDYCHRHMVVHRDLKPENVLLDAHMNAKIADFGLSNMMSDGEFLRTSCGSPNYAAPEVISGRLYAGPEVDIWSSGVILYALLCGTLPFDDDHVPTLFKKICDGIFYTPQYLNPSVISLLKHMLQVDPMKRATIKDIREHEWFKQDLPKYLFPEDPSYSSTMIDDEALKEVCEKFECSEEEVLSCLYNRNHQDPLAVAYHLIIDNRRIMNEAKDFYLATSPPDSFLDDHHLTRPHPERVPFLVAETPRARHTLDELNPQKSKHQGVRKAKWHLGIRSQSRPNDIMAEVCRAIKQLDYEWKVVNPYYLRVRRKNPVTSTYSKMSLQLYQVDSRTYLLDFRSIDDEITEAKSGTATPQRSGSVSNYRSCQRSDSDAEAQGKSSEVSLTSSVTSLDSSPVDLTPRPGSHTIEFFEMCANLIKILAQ
# panel of 468 kinases [8] = molecular target: T8, panel of 468 kinases (Homo sapiens, UniProt P42336, H1047L); details: PIK3CA(H1047L); 1 μM; read-out: % control
# T8 construct: purchased KINOMEscan (ScanMAX) service
# T8 sequence (P42336 whole entry H1047L): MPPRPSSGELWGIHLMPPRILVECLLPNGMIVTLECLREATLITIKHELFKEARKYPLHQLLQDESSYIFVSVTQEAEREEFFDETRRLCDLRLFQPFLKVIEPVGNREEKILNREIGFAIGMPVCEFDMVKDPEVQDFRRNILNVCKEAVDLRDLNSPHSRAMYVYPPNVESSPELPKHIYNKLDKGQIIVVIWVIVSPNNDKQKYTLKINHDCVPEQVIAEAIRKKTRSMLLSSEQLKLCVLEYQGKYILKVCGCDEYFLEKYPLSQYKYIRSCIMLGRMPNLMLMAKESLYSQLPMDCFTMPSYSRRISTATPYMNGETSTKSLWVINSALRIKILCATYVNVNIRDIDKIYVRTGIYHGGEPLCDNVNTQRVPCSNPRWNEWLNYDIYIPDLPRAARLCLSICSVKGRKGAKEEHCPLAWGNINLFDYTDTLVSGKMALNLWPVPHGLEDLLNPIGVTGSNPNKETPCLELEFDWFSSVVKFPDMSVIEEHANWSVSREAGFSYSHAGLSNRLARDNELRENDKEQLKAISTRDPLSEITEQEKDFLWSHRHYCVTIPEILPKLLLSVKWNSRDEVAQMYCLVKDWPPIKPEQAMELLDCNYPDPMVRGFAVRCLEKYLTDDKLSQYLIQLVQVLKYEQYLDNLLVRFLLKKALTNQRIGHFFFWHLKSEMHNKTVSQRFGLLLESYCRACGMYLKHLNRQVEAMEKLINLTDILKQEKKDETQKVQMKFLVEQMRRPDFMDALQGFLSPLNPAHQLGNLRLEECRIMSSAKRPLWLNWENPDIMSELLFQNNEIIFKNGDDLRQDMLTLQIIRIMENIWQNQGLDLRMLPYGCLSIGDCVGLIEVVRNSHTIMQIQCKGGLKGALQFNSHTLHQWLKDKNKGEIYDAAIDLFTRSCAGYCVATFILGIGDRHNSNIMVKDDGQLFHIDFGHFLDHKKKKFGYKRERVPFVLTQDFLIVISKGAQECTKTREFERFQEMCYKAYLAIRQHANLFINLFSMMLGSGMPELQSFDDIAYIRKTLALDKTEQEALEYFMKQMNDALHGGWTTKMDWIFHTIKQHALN
SMILES,remaining binding at 1 µM (panel of 468 kinases [1]),remaining binding at 1 µM (panel of 468 kinases [2]),remaining binding at 1 µM (panel of 468 kinases [3]),remaining binding at 1 µM (panel of 468 kinases [4]),remaining binding at 1 µM (panel of 468 kinases [5]),remaining binding at 1 µM (panel of 468 kinases [6]),remaining binding at 1 µM (panel of 468 kinases [7]),remaining binding at 1 µM (panel of 468 kinases [8])
"CNc1nc(Nc2ccc(C(=O)N3CCC(N4CCOCC4)CC3)c3c2OCO3)nc2[nH]cc(Cl)c12 [Compound 75, (7-((5-chloro-4-(methylamino)-7H-pyrrolo[2,3-d]pyrimidin-2-yl)amino)benzo[d][1,3]dioxol-4-yl)(4-morpholinopiperidin-1-yl)methanone]",91%,89%,100%,94%,42%,64%,89%,86%
"CNc1nc(Nc2ccc(S(=O)(=O)N3CCC(N4CCOCC4)CC3)cc2OC)nc2[nH]cc(Cl)c12 [Compound 12, 5-chloro-N2-(2-methoxy-4-((4-morpholinopiperidin-1-yl)sulfonyl)phenyl)-N4-methyl-7H-pyrrolo[2,3-d]pyrimidine-2,4-diamine]",100%,80%,95%,75%,68%,77%,100%,56%
"CNc1nc(Nc2ccc(P3(=O)CCN(C4CCOCC4)CC3)cc2OC)nc2[nH]cc(Cl)c12 [Compound 77, 4-(4-((5-chloro-4-(methylamino)-7H-pyrrolo[2,3-d]pyrimidin-2-yl)amino)-3-methoxyphenyl)-1-(tetrahydro-2H-pyran-4-yl)-1,4-azaphosphinane 4-oxide]",100%,71%,100%,87%,25%,68%,93%,61%

# Source: patent US12479847B2 (DANA-FARBER CANCER INSTITUTE, INC., priority 2019, dated 2025)
